Measurements published in patent US9765029B2, “Pyridine compounds as sodium channel blockers” (Purdue Pharma L.P., priority 2010, dated 2017).

System: FCA-induced inflammation of the rat hind paw
Assay: Freund's complete adjuvant (FCA) model of inflammatory pain, paw withdrawal threshold (PWT)
Assay type: in vivo
Protocol: Test Animals: Each experiment uses rats weighing between 200-260 g at the start of the experiment. The rats are group-housed and have free access to food and water at all times, except prior to oral administration of a test compound when food is removed for 16 hours before dosing. A control group acts as a comparison to rats treated with a compound of Formulae I-XIII. The control group is administered the carrier as used for the test compound. The volume of carrier administered to the control group is the same as the volume of carrier and test compound administered to the test group.
To assess the actions of the compounds of Formulae I-XIII on the treatment of inflammatory pain the Freund's complete adjuvant (“FCA”) model of inflammatory pain was used. […] 24 hour post injection, the animal was assessed for response to noxious mechanical stimuli by determining the paw withdrawal threshold (PWT), or to noxious thermal stimuli by determining the paw withdrawal latency (PWL), as described below. […] Responses to noxious mechanical or thermal stimuli were determined 1, 3, and 5 hours post administration (admin). […]
Sensitivity to noxious mechanical stimuli can be measured in animals using the paw pressure test to assess mechanical hyperalgesia. […] PWT is determined once for each rat at each time point. PWT can be measured only in the injured paw, or in both the injured and non-injured paw. […]

SMILES: NC(=O)[C@H](CO)NC(=O)c1cccc(-c2ccc(Oc3ccc(F)cc3)cc2)n1 [Compound 47, 6-[4-(4-fluoro-phenoxy)-phenyl]-pyridine-2-carboxylic acid ((S)-1-carbamoyl-2-hydroxy-ethyl)-amide]
- increase in PWT (10 mg/kg oral (PO), 3 h): statistically significant increase
- increase in PWT (30 mg/kg oral (PO), 1, 3 and 5 h): statistically significant increase
